Data: patent US20240060949A1, “BIOSYSTEMS TO DETECT CHEMICAL CONTAMINANTS” (priority 2020, published 2024)
Like-named read-outs stand apart in the source and are kept apart here.

Assays:
[1] = molecular target: T1, CYP3A4 (Homo sapiens, UniProt P08684); type: biochemical; conditions: CYP3A4 electrochemical biosensor, 50 μM progesterone, estimated
Method: The working electrodes (WE) of screen-printed carbon electrodes (SPCE) (C110, from Methrom-Dropsens), were modified with 3 μL suspension of 1 mg/mL of single-walled carbon nanotubes. After chloroform evaporation, 5 μL of a 0.08 nmol/mL solution of CYP3A4 (recombinant, expressed in E. Coli from Sigma-Aldrich) was deposited onto the modified WE surface and incubated overnight at 4° C. 100 mM of potassium phosphate buffer saline (PBS) at pH 8.0, containing 50 mM of potassium chloride, was used to prepare the standards, as well as a supporting electrolyte for the electrochemical measurements. Aliquots (60 μL) of 50 μM progesterone solutions containing 0, 50, 100, 200 and 300 ng/mL of HBCD, were placed onto the working area of the SPCE by drop-casting, incubated for 2 minutes at room temperature and the electrochemical measurements performed. For each sample, one cyclic voltammetric scan was carried out, sweeping the potential from −0.75 V to 0.30 V at 0.02 V/s. The peak height of the cathodic peaks generated near to −0.55 V was registered and HBCD presence, calculated using as reference the peak of the blank assay (buffer solution). The electrochemical signal registered at CYP3A4-based biosensor, respond to the concentration of HBCD, allowing to establish the I (%) values for different concentrations of this compound (FIG. 1). Limit of detection was estimated to be 42.8 ng/mL for HBCD.

[2] = molecular target: T1, CYP3A4; type: biochemical; conditions: for Inhibition percentage I (%): lateral flow reader; for Limit of detection: CYP3A4 lateral flow, concentration providing 20% of inhibition, estimated
Method: The metabolism of two different fluorescent substrates was used to determine the percent of inhibition of CYP3A4 as response to the contaminant concentrations. The enzymatic reactions were carried out in 96-well plates adding 80 μL of potassium phosphate buffer (100 mM, pH 8.0) or 100 ng/mL of standard solutions in duplicates. Both brominated compounds were prepared in potassium phosphate buffer (100 mM, pH 8.0) and tested as inhibitors of CYP3A4 activity. […] Subsequently, 10 μL of enzyme mixture were added to each well, homogenised and allowed to pre-incubate during 10 minutes at room temperature. Two different substrate mixtures were used in combination with brominated molecules. To evaluate the inhibition promoted by BDE-100, 10 μL of a substrate mixture containing 2 μM of DBF and 30 μM Vivid® NADP+ in potassium phosphate buffer (100 mM, pH8.0), were added to the appropriated wells. The inhibitory effect of HBCD concentration was tested for a substrate mixture, containing 2 μM of DBOMF and 30 μM Vivid® NADP+ prepared in potassium phosphate buffer (100 mM, pH8.0), from which 10 μL were added to the appropriated wells. After the addition of the respective substrate probes, the plate was newly incubated at 25° C. for 60 minutes. The resulting reaction broths were diluted 10 and 20 times in buffer, for respectively DBF and BDE-100, and for DBOMF and HBCD reactions. Finally, 1.5 μL of diluted broths were pipetted as a line onto nitrocellulose membranes and the fluorometric measurements carried out at a lateral flow reader (ESEQuant LR3, QIAGEN) with a fluorometric channel of 470 nm and 520 nm as excitation and emission wavelengths, respectively. A blank sample, buffer solution, was measured at the same time and the reduction of the signal, inhibition of enzyme activity, was calculated and associated with the presence of each BDE, as shown in Table 5.
Considering the signal intensity developed for different levels of the contaminant molecules, the concentration providing 20% of inhibition was selected as limit of detection, estimated to be 36 ng/mL and 14 ng/mL for BDE-100 and HBCD, respectively.

[3] = molecular target: T1, CYP3A4; type: biochemical; conditions: CYP3A4, DBF substrate; concentration providing 20% inhibition (IC20)
Method: (§1) The bioassay was performed in a 96-well plate. 50 μL of a solution containing PAHs or BFRs is added to wells in triplicate. […] After incubating at room temperature 10 μL of substrate mixture (5 μM of substrate (EOMCC for CYP1A2, BOMCC for CYP2B6 or DBF for CYP3A4) and 30 μM Vivid® NADP^+ diluted in working buffer) was added. The plate was incubated 30 minutes at 25° C. and when time passed, fluorescence signal was measured with a fluorometric reader, 410/490 nm and 460/520 nm were the excitation and emission wavelengths, respectively. A blank sample, buffer solution, was measured at the same time and the reduction of the signal, inhibition of enzyme activity, was calculated and associated with the presence of contaminants.

[4] = molecular target: T2, CYP2B6 (Homo sapiens, UniProt P20813); type: biochemical
Method: as §1

[5] = system: CYP1A2 and CYP2C19; type: biochemical
Method: The bioassay was performed in a 96-well plate. 80 μL of sample is added to wells in triplicate. […] After the preparation, 10 μL of enzyme mixture were added to each plate. After incubating at room temperature 10 μL of substrate mixture (5 μM of substrate EOMCC and 30 μM Vivid® NADP^+ diluted in working buffer) was added. The plate was incubated 30 minutes at 30° C. and when time passed, fluorescence signal was measured with a fluorometric reader, 410 nm and 460 nm were the excitation and emission wavelengths, respectively. A blank sample, buffer solution, was measured at the same time and the reduction of the signal, inhibition of enzyme activity, was calculated and associated with the presence of contaminants.

[6] = molecular target: T2, CYP2B6; conditions: pH 7.4
[7] = molecular target: T1, CYP3A4; conditions: pH 8
[8] = molecular target: CYP2B10 (Mus musculus, UniProt P12791); conditions: CYP2B10, 3 μM BOMCC; concentration that induces 20% inhibition (Table 8)
[9] = CYP2B6, BOMCC substrate, concentration providing 20% inhibition (IC20)

T2 sequence (P20813 whole entry): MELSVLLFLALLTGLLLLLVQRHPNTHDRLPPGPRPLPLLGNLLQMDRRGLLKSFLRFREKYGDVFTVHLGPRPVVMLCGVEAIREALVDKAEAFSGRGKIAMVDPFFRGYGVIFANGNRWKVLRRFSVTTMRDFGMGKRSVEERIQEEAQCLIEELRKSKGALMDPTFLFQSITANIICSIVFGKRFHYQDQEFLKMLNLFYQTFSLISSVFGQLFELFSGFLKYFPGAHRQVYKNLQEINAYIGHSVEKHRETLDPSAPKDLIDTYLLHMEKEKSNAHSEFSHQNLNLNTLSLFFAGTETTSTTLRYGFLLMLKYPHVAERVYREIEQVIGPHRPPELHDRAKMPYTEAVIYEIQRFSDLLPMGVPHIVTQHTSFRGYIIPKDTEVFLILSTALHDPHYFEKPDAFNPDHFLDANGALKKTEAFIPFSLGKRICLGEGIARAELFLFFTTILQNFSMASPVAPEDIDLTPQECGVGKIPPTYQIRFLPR
T1 sequence (P08684 whole entry): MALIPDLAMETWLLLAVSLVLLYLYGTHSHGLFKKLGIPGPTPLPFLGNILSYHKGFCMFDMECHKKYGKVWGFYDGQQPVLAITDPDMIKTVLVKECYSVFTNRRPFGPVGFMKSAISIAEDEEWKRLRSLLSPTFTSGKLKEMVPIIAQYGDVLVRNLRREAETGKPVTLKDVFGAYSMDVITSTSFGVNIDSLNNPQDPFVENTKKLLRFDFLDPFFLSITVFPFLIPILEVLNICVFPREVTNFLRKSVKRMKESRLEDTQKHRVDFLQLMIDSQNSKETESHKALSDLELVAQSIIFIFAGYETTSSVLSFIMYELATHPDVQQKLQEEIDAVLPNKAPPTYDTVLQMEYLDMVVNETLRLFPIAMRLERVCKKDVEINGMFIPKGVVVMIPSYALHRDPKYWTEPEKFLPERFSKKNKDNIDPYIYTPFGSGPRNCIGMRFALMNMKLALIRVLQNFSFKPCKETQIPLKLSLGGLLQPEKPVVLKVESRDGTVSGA
Chain of CYP2B10 (P12791 whole entry): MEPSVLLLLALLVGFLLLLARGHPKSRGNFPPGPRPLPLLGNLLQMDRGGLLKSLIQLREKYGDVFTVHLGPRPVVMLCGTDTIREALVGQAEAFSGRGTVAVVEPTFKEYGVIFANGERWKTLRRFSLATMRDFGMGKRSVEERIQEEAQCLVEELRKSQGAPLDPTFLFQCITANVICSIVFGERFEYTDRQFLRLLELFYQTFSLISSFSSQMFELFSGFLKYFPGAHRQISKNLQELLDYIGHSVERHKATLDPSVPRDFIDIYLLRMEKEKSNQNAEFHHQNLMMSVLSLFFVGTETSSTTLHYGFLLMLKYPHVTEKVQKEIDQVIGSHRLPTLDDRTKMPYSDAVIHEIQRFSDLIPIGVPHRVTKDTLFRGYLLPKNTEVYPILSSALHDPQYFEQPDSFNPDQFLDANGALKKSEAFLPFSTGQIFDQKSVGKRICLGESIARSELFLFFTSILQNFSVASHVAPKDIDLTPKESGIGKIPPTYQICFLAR

**Q.** Hexabromocyclododecane [HBCD] was tested. Which Limit of detection [1] did it give?
**A.** Its Limit of detection is 42.8 ng/mL.

**Q.** And the “Inhibition percentage I (%)” value ([2]; CYP3A4, 2 μM DBOMF, 50 ng/mL contaminant)?
**A.** The value was 69.8%.

**Q.** What about the “Inhibition percentage I (%)” value ([2]; CYP3A4, 2 μM DBOMF, 100 ng/mL contaminant) of the same compound?
**A.** Its value is 84.3%.

**Q.** What about the Limit of detection ([2]; DBOMF substrate) of the same compound?
**A.** Its Limit of detection is 14 ng/mL.

**Q.** How did the Limits of detection [3] turn out when `Brc1ccc(Oc2ccc(Br)cc2Br)c(Br)c1` [BDE-47, 2,2′,4,4′-Tetrabromodiphenyl ether] was run?
**A.** Its Limits of detection is 5 ng/mL.

**Q.** `c1ccc2c(c1)-c1cccc3c1c-2cc1ccccc13` [benzo(b)fluoranthene (BbF), benzo(b)fluoranthene] was tested. Which Limit of detection [4, 9] did it give?
**A.** Its Limit of detection is 20 µg/L.

**Q.** How did the Limit of detection ([5]; CYP1A2 and CYP2C19, 5 μM EOMCC, concentration that induces 20% inhibition) turn out when `C=C(C[C@@]12C[C@@H](C)C[C@H](O1)[C@H]1O[C@]3(C[C@H]1O2)NC[C@H](C)C[C@@H]3C)[C@H]1O[C@@](O)([C@@H](O)[C@@H]2C[C@H]3O[C@@]4(CC[C@]5(CC=C[C@@H](/C=C/CCC(=O)O)O5)O4)[C@H](C)C[C@H]3O2)[C@H](C)C[C@@H]1C` [Azaspiracid-1] was run?
**A.** The Limit of detection was 3 µg/L.

**Q.** Which Limit of detection ([4]; human) does the source give for `c1ccc2cc3c(ccc4ccccc43)cc2c1` [benz(a)anthracene (BaA), benz(a)anthracene] here?
**A.** The Limit of detection was 5 µg/L.

**Q.** Which Limits of detection [3] does the source give for `Brc1cc(Br)c(Oc2cc(Br)c(Br)cc2Br)c(Br)c1` [BDE-154, 2,2′,4,4′,5,6′-Hexabromodiphenyl ether] here?
**A.** Its Limits of detection is 5 ng/mL.

**Q.** How did the Limits of detection [3] turn out when `Brc1cc(Br)c(Oc2cc(Br)c(Br)cc2Br)cc1Br` [BDE-153, 2,2′,4,4′,5,5′-Hexabromodiphenyl ether] was run?
**A.** The Limits of detection was 5 ng/mL.

**Q.** With `Brc1c(Br)c(Br)c(Oc2c(Br)c(Br)c(Br)c(Br)c2Br)c(Br)c1Br` [BDE-209, Decabromodiphenyl ether] as the compound, how does the Limits of detection [3] read?
**A.** Its Limits of detection is 10 ng/mL.

**Q.** With `Brc1ccc(Oc2cc(Br)c(Br)cc2Br)c(Br)c1` [BDE-99, 2,2′,4,4′,5-Pentabromodiphenyl ether] as the compound, how does the Limits of detection [3] read?
**A.** Its Limits of detection is 100 ng/mL.

**Q.** `O=NO` [Sodium Nitrite] was tested. Which “Limits of detection CYP2B6” value [6] did it give?
**A.** The value was 2.3 mg/mL.

**Q.** How did the Limit of detection ([5]; human) turn out when `C=CCC(=C)/C=C/[C@@](C)(O)[C@H]1O[C@@H]2C[C@@H]3O[C@@H]4C[C@@H]5O[C@@H]6C[C@@H]7O[C@@H]8C[C@@H]9O[C@@H]%10C[C@@H]%11O[C@](C)(CCOS(=O)(=O)O)[C@@H](OS(=O)(=O)O)C[C@H]%11O[C@H]%10C[C@H]9O[C@H]8CC[C@@]7(C)O[C@@]6(C)CC[C@H](C)[C@H]5O[C@H]4C[C@@]3(C)O[C@H]2CC1=C` [Yessotoxin] was run?
**A.** Its Limit of detection is 45 µg/L.

**Q.** Which “Limits of detection CYP3A4” value [7] does the source give for `N[C@@H](CCC(=O)O)C(=O)[O-].[Na+]` [Monosodium glutamate] here?
**A.** The value was 3.6 mg/mL.

**Q.** `O=C([O-])c1ccccc1.[Na+]` [Sodium Benzoate] was tested. Which “Limits of detection CYP2B10” value [8] did it give?
**A.** Its value is 3.2 mg/mL.

**Q.** How did the Limits of detection [3] turn out when `Brc1ccc(Oc2ccc(Br)cc2Br)cc1` [BDE-28, 2,4,4′-Tribromodiphenyl ether] was run?
**A.** Its Limits of detection is 100 ng/mL.

**Q.** Which results are given for `Brc1ccc(Oc2c(Br)cc(Br)cc2Br)c(Br)c1` [BDE-100, 2,2′,4,4′,6-Pentabromodiphenyl ether]?
**A.** Limits of detection [3]: 5 ng/mL; Inhibition percentage I (%) ([2]; CYP3A4, 2 μM DBF, 100 ng/ml contaminant): 55.4%; Limit of detection ([2]; DBF substrate): 36 ng/mL

**Q.** For 13,19-didesmethyl C spirolide, which Limit of detection [5] is on record?
**A.** The Limit of detection was 10 µg/L.

**Q.** Which “Limits of detection CYP2B10” value [8] does the source give for `[CH3][Hg][Cl]` [Methylmercury] here?
**A.** The value was 4.43e-05 mg/mL.

**Q.** Which Limit of detection [4, 9] does the source give for `c1ccc2c(c1)cc1ccc3cccc4ccc2c1c34` [benzo(a)pyrene (BaP), benzo(a)pyrene] here?
**A.** Its Limit of detection is 15 µg/L.

**Q.** Which Limit of detection [4, 9] does the source give for `c1ccc2c(c1)ccc1c3ccccc3ccc21` [chrysene (Chrys), chrysene] here?
**A.** The Limit of detection was 10 µg/L.
